This note sets out measurements from BindingDB's records for patent US9828374 (Hoffmann-La Roche, 2017).

This test addresses Trace amine-associated receptor 1 (Mus musculus, UniProt Q923Y8). Put plainly: Radioligand Binding Assay. The protocol:
Nonspecific binding was defined as the amount of [H]-(S)-4-[(ethyl-phenyl-amino)-methyl]-4,5-dihydro-oxazol-2-ylamine bound in the presence of 10 μM unlabeled ligand. All compounds were tested at a broad range of concentrations ([…]) in duplicates.

Sequence of Trace amine-associated receptor 1 (Q923Y8 whole entry): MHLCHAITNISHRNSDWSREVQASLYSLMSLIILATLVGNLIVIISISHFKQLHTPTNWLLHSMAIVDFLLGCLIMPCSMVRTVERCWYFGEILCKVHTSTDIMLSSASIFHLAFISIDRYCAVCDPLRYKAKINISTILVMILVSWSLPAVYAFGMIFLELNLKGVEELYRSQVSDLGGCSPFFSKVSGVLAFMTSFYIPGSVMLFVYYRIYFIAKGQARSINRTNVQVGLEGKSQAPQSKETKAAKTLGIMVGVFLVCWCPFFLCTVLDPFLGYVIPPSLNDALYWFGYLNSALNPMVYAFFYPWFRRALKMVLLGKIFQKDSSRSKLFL

On to `Brc1ccc2c(c1)CCN1CCNC[C@@H]21` [US9828374, Example 2], for which the affinity, expressed as Ki, was 180 nM.
Turning to `O=C(Nc1ccc2c(c1)CCN1CCNC[C@@H]21)c1cnc(C(F)(F)F)nc1` [US9828374, Example 4], the Ki (in general, a measure of affinity in units of concentration, obtained from inhibition or displacement) is 189 nM.
Compound `Fc1c(Nc2cc(Cl)nc(C(F)(F)F)n2)ccc2c1CCN1CCNC[C@@H]21` [US9828374, Example 34] showed a Ki of 79.5 nM.
The compound `Cc1cc(Nc2ccc3c(c2)CCN2CCNC[C@@H]32)nc(OCC(F)(F)F)n1` [US9828374, Example 26] yielded a Ki of 41 nM.
